This is an account of results in patent publication US20040116420A1 (priority 2001, published 2004).

The subject of one assay is HSV2. Nature of the assay: Antiviral activity 2, plaque formation in HEL cells. Conditions: Human alphaherpesvirus 2, 72 h, 3 days. It is filed as cell-based, HSV-2. As for the experimental part: (§1) An Assay Method for Antiviral Activity 2
(§2) The HEL cells were sowed on a 48-well plate and then cultured overnight. The culture supernatant was removed, and 100 μl of 2% FBS-DMEM containing 40 Plaque-forming units of HSV-1, HSV-2, VZV, or CMV was added. A viral solution Was removed 1 hour later, and 500 μl of 2% FBS-DMEM containing 0.5% methylcellulose comprising 50, 25, 12.5, 6.3, 3.2, or 1.6 μM of the test compound was added. In this case, a substance to which 2% FBS-DMEM containing 0.5% methylcellulose not comprising any test compound had been added was designated as a control. In the case of HSV-1, HSV-2, or VZV, incubation was carried out in the presence of 5% CO2 at 37° C. for 3 days. In the case of CMV, incubation was carried out under the same conditions for 14 days. After they were immobilized on formalin and stained with bromophenol blue, the amount of plaque formed was counted, and the ratio of plaque formation of the drug-containing reaction system relative to the control was determined. The concentration of the drug with which the ratio of plaque formation reaches 50% was calculated and determined to be IC50. Concerning HSV-1, an aciclovir-resistant thymidine kinase variant and a DNA polymerase variant were examined in addition to a general aciclovir-sensitive strain.

In another assay the test system is VZV. The description is as above. Format: cell-based. The conditions noted are these: Human alphaherpesvirus 3, 72 h, 3 days. As for the experimental part:
as §1, §2

Another assay has as its system HCMV. Described as above. The conditions noted are these: Human betaherpesvirus 5, 336 h, 14 days. It is filed as cell-based, CMV. The protocol: as §1, §2
In assay [1] the test system is HSV1 DNA polymerase variant. Described as above. Format: cell-based, HSV-1. Conditions: Human alphaherpesvirus 1, HEL, 72 h, read-out: Antiviral activity: IC50, HSV1 DNA polymerase variant. As for the experimental part:
as §1, §2

The subject of assay [2] is HSV1 Thimidine kinase variant. The description is as above. It is filed as cell-based, HSV-1. Conditions: Human alphaherpesvirus 1, HEL, 72 h, read-out: Antiviral activity: IC50, HSV1 Thimidine kinase variant. As for the experimental part:
as §1, §2

A further assay relates to HSV1 Sensitive strain. Described as above. Format: cell-based, HSV-1. Conditions: Human alphaherpesvirus 1, 72 h, 3 days. As for the experimental part:
as §1, §2

A further assay has as its target T1, HSV-1 protease (Human herpesvirus 1, UniProt P10210).
T1 construct: 6xHis (N); made in house; host or cells: baculovirus expression system
Nature of the assay: Enzymatic assay for HSV-1 protease (assembly) inhibitor, fluorescence polarization. It is filed as biochemical. Conditions: read-out: HSV-1 Enzyme inhibition IC50. Summed up: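 His6-tagged HSV-1 UL26 protease, baculovirus-expressed, preincubated 30 min at RT with compound in 1 M citrate/phosphate buffer pH 7.4 with 20% glycerol and 2 mM TCEP. A biotin-HTYLQA*SERFRIK-DTAF substrate was then cleaved for 60 min at RT, stopped with avidin, and read by fluorescence polarization versus no-inhibitor control.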
Background: Fluorescence polarisation rises when a labelled molecule tumbles more slowly, as on binding a larger partner.

The subject of a further assay is HSV-1. Nature of the assay: Antiviral activity, HSV-1 in Vero cells, plaque method. Format: cell-based. Conditions: Human alphaherpesvirus 1, 20 hours, 90% inhibition of plaque formation. The gist of the method:
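HSV-1 (50,000 pfu in 2% FBS-DMEM) was added to Vero cells and removed, then the compound was applied in 2% FBS-DMEM for 20 h at 37° C, 5% CO2. After a freeze-thaw, virus yield in the medium was titred by plaque assay. EC90 is the concentration giving 90% plaque reduction versus the compound-free control.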

T1 sequence (P10210 1-247): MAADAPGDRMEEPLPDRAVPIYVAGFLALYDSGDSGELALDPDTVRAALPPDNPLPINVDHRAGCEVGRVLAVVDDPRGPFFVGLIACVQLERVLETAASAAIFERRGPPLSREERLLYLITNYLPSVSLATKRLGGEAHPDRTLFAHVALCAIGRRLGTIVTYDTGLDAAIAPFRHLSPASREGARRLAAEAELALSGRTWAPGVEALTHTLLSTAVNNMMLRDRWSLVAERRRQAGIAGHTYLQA

Usually IC50 stands for the concentration at which inhibition is half-maximal. A word on the EC90: it is the point of the concentration-response curve where the effect stands at 90%. Higher therefore signals a need for much substance. On to `Cc1c(NC(=O)OC(C)(C)C)ccc2nc(NC(C)(C)C(=O)N(C)CCc3ccccn3)oc(=O)c12` [Compound No.18, (5-methyl-2-{1-methyl-1-[methyl-(2-pyridin-2-yl-ethyl)-carbamoyl]-ethylamino}-4-oxo-4H-benzo[d][1,3]oxazin-6-yl)-carbamic Acid Tert-Butyl Ester], for which the 50% inhibitory concentration (IC50) in the assay with HSV2 was 12.5 µM; in the assay on VZV it was 25 µM; in the assay on HCMV, 11.1 µM; in assay [1] it was 17.1 µM; in assay [2], 22.5 µM; with HSV1 Sensitive strain, 10 µM. Further, at HSV-1 protease, the IC50 amounted to 0.4 µM. Moreover, in the assay with HSV-1, it took 8.4 µM to reach the 90% level (EC90).
